Test results: article PMC9952374, “De Novo Design of Imidazopyridine-Tethered Pyrazolines That Target Phosphorylation of STAT3 in Human Breast Cancer Cells” (Bioengineering, 2023)

How the values were obtained:
[1] = test system: MCF-10A cells; experiment: Alamar Blue cell viability assay, normal MCF-10A; type: cell-based; details: normal MCF-10A cell viability
[2] = test system: MCF-7 cells; experiment: Alamar Blue cell viability assay, MCF-7; type: cell-based, human; details: MCF-7 cell viability
Excerpt: (§1) The goal herein was to assess the ability of imidazopyridine-tethered pyrazolines to inhibit cell viability in mammary carcinoma cells (using the Alamar Blue assay), since pyridine-fused pyrazoles were previously shown to inhibit cell viability in various breast cancer cells. […] The low chemical stability of thio-urea-based compounds may account for the inactivity of most thiourea-conjugated pyrazolines (excluding 4g) against TNBC cells.
(§2) MCF-7 cells were procured from Procell Life Science and Technology Co. LTD, Wuhan, China. Human breast cancer T47D, BT474, and SK-BR-3 cells were obtained from American Type Culture Collection (Washington, DC, NW, USA). Cells (2000) were cultured in MEM or Leibovitz’s L-15 medium enriched with 2% FBS and maintained in a humidified atmosphere of 5% CO2 at 37 °C. A stock solution of DMSO-dissolved compounds was prepared, and this solution was diluted with culture medium as required. MCF-7 Cells (4 × 10^3) were cultured in 96-well plates for 12 h and then treated for 72 h with compounds at concentrations of […]. Using Alamar Blue, the compounds were evaluated for their inhibitory effects
Figure 2 Inhibitory effect of compounds 3f (A), 3e (B), 4g (C), and 3g (D) on the viability of MCF-7 cells. MCF-7 cells were treated with various concentrations of 2-pyrazolines for 72 h and the viability of cells was analyzed by Alamar Blue assays. The results are presented as mean ± S.E.M. of triplicate determinations.

[3] = test system: BT-474 cells; experiment: Alamar Blue cell viability assay, BT-474; type: cell-based, human; details: BT-474 cell viability, Alamar Blue
Excerpt: as §1, §2

[4] = test system: SK-BR-3 cells; experiment: Alamar Blue cell viability assay, SK-BR-3; type: cell-based, human; details: SK-BR-3 cell viability
Excerpt: as §1, §2

[5] = test system: T47D cells; experiment: Alamar Blue cell viability assay, T47D; type: cell-based, human; details: T47D cell viability, Alamar Blue
Excerpt: as §1, §2

What does the source list for `CC(=O)N1N=C(c2c(C)nc3ccc(C)cn23)CC1c1cccc([N+](=O)[O-])c1` (stereo not drawn) [Compound 2, 1-(3-(2,6-Dimethylimidazo[1,2-a]pyridin-3-yl)-5-(3-nitrophenyl)-4,5-dihydro-1H-pyrazol-1-yl)ethanone]?
IC50 ([1]; Homo sapiens): > 100 µM; melting point: 166 to 168 °C; IC50 ([2]; Homo sapiens, MCF7, 72 h): > 100 µM; IC50 ([3]; Homo sapiens): 97.8 ± 1.76 µM; IC50 ([4]; Homo sapiens): > 100 µM; IC50 ([5]; Homo sapiens): > 100 µM

What does the source list for `Cc1ccc2nc(C)c(C3=NN(C(=O)CN4CCC(=O)CC4)C(c4cccc([N+](=O)[O-])c4)C3)n2c1` (stereo not drawn) [Compound 3a, 1-(2-(3-(2,6-Dimethylimidazo[1,2-a]pyridin-3-yl)-5-(3-nitrophenyl)-4,5-dihydro-1H-pyrazol-1-yl)-2-oxoethyl)piperidin-4-one]?
IC50 ([1]; Homo sapiens): > 100 µM; melting point: 170 to 172 °C; IC50 ([2]; Homo sapiens, MCF7, 72 h): 22.8 ± 1.36 µM; IC50 ([3]; Homo sapiens): 4.11 ± 0.41 µM; IC50 ([4]; Homo sapiens): > 100 µM; IC50 ([5]; Homo sapiens): 23.3 ± 1.28 µM

What does the source list for `Cc1ccc2nc(C)c(C3=NN(C(=O)CN4CCN(C(=O)OC(C)(C)C)CC4)C(c4cccc([N+](=O)[O-])c4)C3)n2c1` (stereo not drawn) [Compound 3b, Tert-butyl-4-(2-(3-(2,6-dimethylimidazo[1,2-a]pyridin-3-yl)-5-(3-nitrophenyl)-4,5-dihydro-1H-pyrazol-1-yl)-2-oxoethyl)piperazine-1-carboxylate]?
IC50 ([1]; Homo sapiens): > 100 µM; melting point: 166 to 168 °C; IC50 ([2]; Homo sapiens, MCF7, 72 h): 22.3 ± 1.35 µM; IC50 ([3]; Homo sapiens): 21.3 ± 1.32 µM; IC50 ([4]; Homo sapiens): 28.3 ± 1.34 µM; IC50 ([5]; Homo sapiens): 15.2 ± 1.13 µM

Which IC50 ([1]; Homo sapiens) does the source give for `Cc1ccc2nc(C)c(C3=NN(C(=O)CN4CCNCC4)C(c4cccc([N+](=O)[O-])c4)C3)n2c1` (stereo not drawn) [Compound 3c, 1-(3-(2,6-Dimethylimidazo[1,2-a]pyridin-3-yl)-5-(3-nitrophenyl)-4,5-dihydro-1H-pyrazol-1-yl)-2-(piperazin-1-yl)ethanone] here?
Its IC50 is over 100 µM.

What about the melting point of the same compound?
Its melting point is 176 to 178 °C.

What about the IC50 ([2]; Homo sapiens, MCF7, 72 h) of the same compound?
The IC50 was 29.3 ± 1.47 µM.

And the IC50 ([3]; Homo sapiens)?
The IC50 was 26.8 ± 1.37 µM.

And the IC50 ([4]; Homo sapiens)?
Its IC50 is 95.2 ± 1.79 µM.

What about the IC50 ([5]; Homo sapiens) of the same compound?
The IC50 was 40 ± 1.49 µM.

Which results are given for `CC(=O)N1CCN(CC(=O)N2N=C(c3c(C)nc4ccc(C)cn34)CC2c2cccc([N+](=O)[O-])c2)CC1` (stereo not drawn) [Compound 3d, 2-(4-Acetylpiperazin-1-yl)-1-(3-(2,6-dimethylimidazo[1,2-a]pyridin-3-yl)-5-(3-nitrophenyl)-4,5-dihydro-1H-pyrazol-1-yl)ethanone]?
IC50 ([1]; Homo sapiens): > 100 µM; melting point: 208 to 210 °C; IC50 ([2]; Homo sapiens, MCF7, 72 h): 21 ± 1.32 µM; IC50 ([3]; Homo sapiens): 8.04 ± 0.47 µM; IC50 ([4]; Homo sapiens): 32.1 ± 1.46 µM; IC50 ([5]; Homo sapiens): > 100 µM

Which results are given for `Cc1ccc2nc(C)c(C3=NN(C(=O)CN4CCN(c5ccc(Cl)cc5)CC4)C(c4cccc([N+](=O)[O-])c4)C3)n2c1` (stereo not drawn) [Compound 3e, 2-(4-(4-Chlorophenyl)piperazin-1-yl)-1-(3-(2,6-dimethylimidazo[1,2-a]pyridin-3-yl)-5-(3-nitrophenyl)-4,5-dihydro-1H-pyrazol-1-yl)ethanone]?
IC50 ([1]; Homo sapiens): 38.3 ± 1.44 µM; melting point: 180 to 182 °C; IC50 ([2]; Homo sapiens, MCF7, 72 h): 13.2 ± 1.12 µM; IC50 ([3]; Homo sapiens): 17.6 ± 0.87 µM; IC50 ([4]; Homo sapiens): 39.1 ± 1.46 µM; IC50 ([5]; Homo sapiens): 29.9 ± 1.05 µM

What does the source list for `Cc1ccc2nc(C)c(C3=NN(C(=O)CN4CCN(c5ccc(Cl)cc5F)CC4)C(c4cccc([N+](=O)[O-])c4)C3)n2c1` (stereo not drawn) [Compound 3g, 2-(4-(4-Chloro-2-fluorophenyl)piperazin-1-yl)-1-(3-(2,6-dimethylimidazo[1,2-a]pyridin-3-yl)-5-(3-nitrophenyl)-4,5-dihydro-1H-pyrazol-1-yl)ethanone]?
IC50 ([1]; Homo sapiens): 8.69 ± 0.69 µM; melting point: 196 to 198 °C; IC50 ([2]; Homo sapiens, MCF7, 72 h): 19.4 ± 1.29 µM; IC50 ([3]; Homo sapiens): 63.2 ± 1.75 µM; IC50 ([4]; Homo sapiens): 100 ± 1.98 µM; IC50 ([5]; Homo sapiens): 86.5 ± 1.95 µM

Which results are given for `Cc1ccc2nc(C)c(C3=NN(C(=O)CN4CCN(c5ccccc5F)CC4)C(c4cccc([N+](=O)[O-])c4)C3)n2c1` (stereo not drawn) [Compound 3i, 1-(3-(2,6-Dimethylimidazo[1,2-a]pyridin-3-yl)-5-(3-nitrophenyl)-4,5-dihydro-1H-pyrazol-1-yl)-2-(4-(2-fluorophenyl)piperazin-1-yl)ethanone]?
IC50 ([1]; Homo sapiens): > 100 µM; melting point: 160 to 162 °C; IC50 ([2]; Homo sapiens, MCF7, 72 h): 63.7 ± 1.8 µM; IC50 ([3]; Homo sapiens): > 100 µM; IC50 ([4]; Homo sapiens): > 100 µM; IC50 ([5]; Homo sapiens): > 100 µM

With `Cc1ccc2nc(C)c(C3=NN(C(=S)Nc4ccccc4)C(c4cccc([N+](=O)[O-])c4)C3)n2c1` (stereo not drawn) [Compound 4a, 3-(2,6-Dimethylimidazo[1,2-a]pyridin-3-yl)-5-(3-nitrophenyl)-N-phenyl-4,5-dihydro-1H-pyrazoline-1-carbothioamide] as the compound, how does the IC50 [1] read?
Its IC50 is over 100 µM.

And the IC50 ([2]; 72 h)?
The IC50 was 81.4 ± 1.91 µM.

And the IC50 [3]?
Its IC50 is over 100 µM.

And the IC50 [4]?
The IC50 was over 100 µM.

What about the IC50 [5] of the same compound?
The IC50 was over 100 µM.

With `Cc1ccc2nc(C)c(C3=NN(C(=S)NC4CCCCC4)C(c4cccc([N+](=O)[O-])c4)C3)n2c1` (stereo not drawn) [Compound 4c, N-Cyclohexyl-3-(2,6-dimethylimidazo[1,2-a]pyridin-3-yl)-5-(3-nitrophenyl)-4,5-dihydro-1H-pyrazoline-1-carbothioamide] as the compound, how does the IC50 [1] read?
Its IC50 is over 100 µM.

What about the IC50 ([2]; 72 h) of the same compound?
The IC50 was 46.1 ± 1.66 µM.

And the IC50 [3]?
Its IC50 is 52.8 ± 1.54 µM.

What about the IC50 [4] of the same compound?
Its IC50 is over 100 µM.

What about the IC50 [5] of the same compound?
Its IC50 is over 100 µM.

Which IC50 [1] does the source give for `Cc1ccc2nc(C)c(C3=NN(C(=S)Nc4cccc(Cl)c4)C(c4cccc([N+](=O)[O-])c4)C3)n2c1` (stereo not drawn) [Compound 4e, N-(3-Chlorophenyl)-3-(2,6-dimethylimidazo[1,2-a]pyridin-3-yl)-5-(3-nitrophenyl)-4,5-dihydro-1H-pyrazoline-1-carbothioamide] here?
The IC50 was over 100 µM.

And the IC50 ([2]; 72 h)?
Its IC50 is over 100 µM.

And the IC50 [3]?
The IC50 was over 100 µM.

And the IC50 [4]?
Its IC50 is over 100 µM.

And the IC50 [5]?
The IC50 was over 100 µM.

With `Cc1ccc(NC(=S)N2N=C(c3c(C)nc4ccc(C)cn34)CC2c2cccc([N+](=O)[O-])c2)cc1` (stereo not drawn) [Compound 4f, 3-(2,6-Dimethylimidazo[1,2-a]pyridin-3-yl)-5-(3-nitrophenyl)-N-(p-tolyl)-4,5-dihydro-1H-pyrazoline-1-carbothioamide] as the compound, how does the IC50 [1] read?
The IC50 was over 100 µM.

And the IC50 ([2]; 72 h)?
Its IC50 is 56.9 ± 1.39 µM.

What about the IC50 [3] of the same compound?
The IC50 was over 100 µM.

And the IC50 [4]?
The IC50 was over 100 µM.

What about the IC50 [5] of the same compound?
The IC50 was over 100 µM.

Which IC50 ([1]; Homo sapiens) does the source give for `Cc1ccc2nc(C)c(C3=NN(C(=S)Nc4cc(C(F)(F)F)cc(C(F)(F)F)c4)[C@@H](c4cccc([N+](=O)[O-])c4)C3)n2c1` [Compound 4g, N-(3,5-Bis(trifluoromethyl)phenyl)-3-(2,6-dimethylimidazo[1,2-a]pyridin-3-yl)-5-(3-nitrophenyl)-4,5-dihydro-1H-pyrazoline-1-carbothioamide] here?
Its IC50 is over 100 µM.

What about the melting point of the same compound?
The melting point was 230 to 232 °C.

What about the IC50 ([2]; Homo sapiens, MCF7, 72 h) of the same compound?
The IC50 was 10.9 ± 1.01 µM.

And the IC50 ([3]; Homo sapiens)?
The IC50 was over 100 µM.

And the IC50 ([4]; Homo sapiens)?
The IC50 was over 100 µM.

What about the IC50 ([5]; Homo sapiens) of the same compound?
Its IC50 is over 100 µM.

With “N-(4-Chlorophenyl)-3-(2,6-dimethylimidazo[1,2-a]pyridin-3-yl)-5-(3-nitrophenyl)-4,5-dihydro-1H-pyrazoline-1-carbothioamide [Compound 4d]” as the compound, how does the IC50 [1] read?
Its IC50 is over 100 µM.

What about the IC50 ([2]; 72 h) of the same compound?
The IC50 was over 100 µM.

What about the IC50 [3] of the same compound?
Its IC50 is over 100 µM.

And the IC50 [4]?
The IC50 was over 100 µM.

What about the IC50 [5] of the same compound?
Its IC50 is over 100 µM.

Which IC50 [1] does the source give for “N-Butyl-3-(2,6-dimethylimidazo[1,2-a]pyridin-3-yl)-5-(3-nitrophenyl)-4,5-dihydro-1H-pyrazoline-1-carbothioamide [Compound 4h]” here?
The IC50 was 90.6 ± 1.98 µM.

What about the IC50 ([2]; 72 h) of the same compound?
The IC50 was over 100 µM.

And the IC50 [3]?
The IC50 was over 100 µM.

What about the IC50 [4] of the same compound?
The IC50 was over 100 µM.

And the IC50 [5]?
Its IC50 is 54.4 ± 1.68 µM.
